Results on 23 molecules are retold here after patent US7772246B2 (Pfizer Inc., priority 2007, dated 2010).

Molecules are shown by their SMILES.

The target of this experiment is T1, b-Raf (Homo sapiens, UniProt P15056, V600E).
T1 construct: endogenous in cells; host or cells: A2058 human melanoma cells
Description: Raf cellular assay (phospho-Mek1/2 ELISA in A2058 cells). The following applies: Table 3; human melanoma A2058 cells (b-Raf mutation), Mek1/2 Ser217/221 phosphorylation, 1 hour incubation; read-out: pMEK IC50. The format is cell-based. The method, boiled down:
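A2058 melanoma cells (B-Raf mutant), seeded overnight in 10% FBS DMEM, were exposed to compounds (11-point 1:3 series, duplicate) for 1 h at 37 °C. Lysates were captured on anti-Mek1-coated plates and Mek1/2 Ser217/221 phosphorylation was read by anti-phospho-Mek1/2 ELISA, HRP/TMB, 450 nm.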

T1 sequence (P15056 whole entry V600E): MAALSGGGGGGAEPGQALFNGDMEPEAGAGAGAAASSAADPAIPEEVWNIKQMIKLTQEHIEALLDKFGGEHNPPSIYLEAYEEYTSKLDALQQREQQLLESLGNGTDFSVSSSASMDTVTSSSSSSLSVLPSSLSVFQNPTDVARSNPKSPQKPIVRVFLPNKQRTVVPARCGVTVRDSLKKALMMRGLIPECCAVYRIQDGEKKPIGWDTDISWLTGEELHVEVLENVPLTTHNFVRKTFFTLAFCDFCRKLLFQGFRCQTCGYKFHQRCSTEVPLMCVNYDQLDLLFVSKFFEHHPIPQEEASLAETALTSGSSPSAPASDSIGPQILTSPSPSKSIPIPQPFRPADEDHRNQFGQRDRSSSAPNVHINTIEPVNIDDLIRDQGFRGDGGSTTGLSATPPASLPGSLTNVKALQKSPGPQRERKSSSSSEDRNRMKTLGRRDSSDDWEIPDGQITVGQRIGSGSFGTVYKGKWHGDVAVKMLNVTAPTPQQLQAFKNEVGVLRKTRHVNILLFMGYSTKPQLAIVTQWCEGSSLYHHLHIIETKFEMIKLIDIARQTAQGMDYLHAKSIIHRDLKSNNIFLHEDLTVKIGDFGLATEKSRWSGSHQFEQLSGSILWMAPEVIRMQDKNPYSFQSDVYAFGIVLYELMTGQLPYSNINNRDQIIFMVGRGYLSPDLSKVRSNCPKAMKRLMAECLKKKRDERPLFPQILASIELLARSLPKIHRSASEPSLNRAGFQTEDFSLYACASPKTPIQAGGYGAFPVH

In general, IC50 refers to the concentration at which inhibition is half-maximal. Regarding `Cc1c[nH]c2ncc(-c3nn(CC(F)F)cc3-c3ccnc(NCCC#N)n3)cc12` [Example B-93, 3-(4-(1-(2,2-difluoroethyl)-3-(3-methyl-1H-pyrrolo[2,3-b]pyridin-5-yl)-1H-pyrazol-4-yl)pyrimidin-2-ylamino)propanenitrile], the 50% inhibitory concentration (IC50) came to 0.275 nM.

With `Cc1n[nH]c2ncc(-c3nn(C(C)(C)CO)cc3-c3ccnc(NCCC#N)n3)cc12` [Example B-94, 3-(4-(1-(1-hydroxy-2-methylpropan-2-yl)-3-(3-methyl-1H-pyrazolo[3,4-b]pyridin-5-yl)-1H-pyrazol-4-yl)pyrimidin-2-ylamino)propanenitrile], the IC50 worked out at 13.3 nM. With `N#CCCNc1nccc(-c2cn(CC(F)F)nc2-c2cnc3c(c2)CC(=O)N3)n1` [Example B-95, 3-(4-(1-(2,2-difluoroethyl)-3-(2-oxo-2,3-dihydro-1H-pyrrolo[2,3-b]pyridin-5-yl)-1H-pyrazol-4-yl)-pyrimidin-2-ylamino)propanenitrile], the IC50 turned out to be 1670 nM. The value for `C[C@H](O)CNc1nccc(-c2cn(CC(F)F)nc2-c2cnc3[nH]cc(Cl)c3c2)n1` [Example B-96, (2S)-1-({4-[3-(3-chloro-1H-pyrrolo[2,3-b]pyridin-5-yl)-1-(2,2-difluoroethyl)-1H-pyrazol-4-yl]pyrimidin-2-yl}amino)propan-2-ol] was 14.1 nM; that for `Cc1[nH]c2ncc(-c3nn(C(C)C)cc3-c3ccnc(NC[C@H](C)O)n3)cc2c1Cl` [Example B-97, (2S)-1-({4-[3-(3-chloro-2-methyl-1H-pyrrolo[2,3-b]pyridin-5-yl)-1-isopropyl-1H-pyrazol-4-yl]pyrimidin-2-yl}amino)propan-2-ol] was 174 nM; that for `C[C@H](O)CNc1nccc(-c2cn(CC3(C)COC3)nc2-c2cnc3[nH]cc(Cl)c3c2)n1` [Example B-98, (2S)-1-[(4-{3-(3-chloro-1H-pyrrolo[2,3-b]pyridin-5-yl)-1-[(3-methyloxetan-3-yl)methyl]-1H-pyrazol-4-yl}pyrimidin-2-yl)amino]propan-2-ol] was 146 nM.

With `C[C@H](O)CNc1nccc(-c2cn(C3COC3)nc2-c2cnc3[nH]cc(Cl)c3c2)n1` [Example B-99, (2S)-1-({4-[3-(3-chloro-1H-pyrrolo[2,3-b]pyridin-5-yl)-1-oxetan-3-yl-1H-pyrazol-4-yl]pyrimidin-2-yl}amino)propan-2-ol], the IC50 turned out to be 235 nM. The value for `Cc1c[nH]c2ncc(-c3nn(CC(F)F)cc3-c3ccnc(NC[C@H](C)O)n3)cc12` [Example B-100, (2S)-1-({4-[1-(2,2-difluoroethyl)-3-(3-methyl-1H-pyrrolo[2,3-b]pyridin-5-yl)-1H-pyrazol-4-yl]pyrimidin-2-yl}amino)propan-2-ol] was 4.29 nM.

With `C[C@H](O)CNc1nccc(-c2cn(CC(F)F)nc2-c2cnc3[nH]cc(F)c3c2)n1` [Example B-101, (2S)-1-({4-[1-(2,2-difluoroethyl)-3-(3-fluoro-1H-pyrrolo[2,3-b]pyridin-5-yl)-1H-pyrazol-4-yl]pyrimidin-2-yl}amino)propan-2-ol], the half-maximal inhibitory concentration (IC50) stood at 107 nM.

On to `C[C@H](O)CNc1nccc(-c2cn(CC(F)F)nc2-c2cnc3c(c2)CCN3)n1` [Example B-102, (2S)-1-({4-[1-(2,2-difluoroethyl)-3-(2,3-dihydro-1H-pyrrolo[2,3-b]pyridin-5-yl)-1H-pyrazol-4-yl]pyrimidin-2-yl}amino)propan-2-ol], for which the IC50 came out at 509 nM. For `C[C@H](O)CNc1nccc(-c2cn(CC(F)F)nc2-c2cnc3[nH]cc(C#N)c3c2)n1` [Example B-103, 5-[1-(2,2-difluoroethyl)-4-(2-{[(2S)-2-hydroxypropyl]amino}pyrimidin-4-yl)-1H-pyrazol-3-yl]-1H-pyrrolo[2,3-b]pyridine-3-carbonitrile] the value was 3800 nM; for `COc1cc(-c2nn(CC(F)F)cc2-c2ccnc(NC[C@H](C)O)n2)cnc1N` [Example B-104, (2S)-({4-[3-(6-amino-5-methoxypyridin-3-yl)-1-(2,2-difluoroethyl)-1H-pyrazol-4-yl]pyrimidin-2-yl}amino)propan-2-ol], 9.62 nM; for `Cc1c[nH]c2ncc(-c3nn(CC(F)F)cc3-c3ccnc(NCCO)n3)cc12` [Example B-105, 2-({4-[1-(2,2-difluoroethyl)-3-(3-methyl-1H-pyrrolo[2,3-b]pyridin-5-yl)-1H-pyrazol-4-yl]pyrimidin-2-yl}amino)ethanol], 9.46 nM. The value for `OCCNc1nccc(-c2cn(CC(F)F)nc2-c2cnc3[nH]cc(Cl)c3c2)n1` [Example B-106, 2-({4-[3-(3-chloro-1H-pyrrolo[2,3-b]pyridin-5-yl)-1-(2,2-difluoroethyl)-1H-pyrazol-4-yl]pyrimidin-2-yl}amino)ethanol] was 10.5 nM; that for `Nc1nccc(-c2cn(CC(F)F)nc2-c2cnc3[nH]cc(Cl)c3c2)n1` [Example B-107, 4-[3-(3-chloro-1H-pyrrolo[2,3-b]pyridin-5-yl)-1-(2,2-difluoroethyl)-1H-pyrazol-4-yl]pyrimidin-2-amine] was 8.06 nM; that for `Cc1c[nH]c2ncc(-c3nn(CC(F)F)cc3-c3ccnc(N)n3)cc12` [Example B-108, 4-[1-(2,2-difluoroethyl)-3-(3-methyl-1H-pyrrolo[2,3-b]pyridin-5-yl)-1H-pyrazol-4-yl]pyrimidin-2-amine] was 11.2 nM. On to `COCCCn1cc(-c2ccnc(NC[C@H](C)O)n2)c(-c2cnc3[nH]cc(Cl)c3c2)n1` [Example B-110, (2S)-1-({4-[3-(3-chloro-1H-pyrrolo[2,3-b]pyridin-5-yl)-1-(3-methoxypropyl)-1H-pyrazol-4-yl]pyrimidin-2-yl}amino)propan-2-ol], for which the 50% inhibitory concentration (IC50) turned out to be 144 nM.

Consider `COc1cc(-c2nn(C(C)C)cc2-c2ccnc(NC[C@H](C)O)n2)cnc1N` [Example B-111, (2S)-1-({4-[3-(6-amino-5-methoxypyridin-3-yl)-1-isopropyl-1H-pyrazol-4-yl]pyrimidin-2-yl}amino)propan-2-ol], for which the IC50 was 6.13 nM. `Cc1c[nH]c2ncc(-c3nn(C4CCN(C)CC4)cc3-c3ccnc(NCC(F)F)n3)cc12` [Example B-113, N-(2,2-difluoroethyl)-4-[1-(1-methylpiperidin-4-yl)-3-(3-methyl-1H-pyrrolo[2,3-b]pyridin-5-yl)-1H-pyrazol-4-yl]pyrimidin-2-amine]: the IC50 was 1.48 nM. With `CN1CCC(n2cc(-c3ccnc(NCC(F)F)n3)c(-c3cnc4[nH]cc(Cl)c4c3)n2)CC1` [Example B-114, 4-[3-(3-chloro-1H-pyrrolo[2,3-b]pyridin-5-yl)-1-(1-methylpiperidin-4-yl)-1H-pyrazol-4-yl]-N-(2,2-difluoroethyl)pyrimidin-2-amine], the half-inhibitory concentration (IC50) was 2.22 nM.

Take `COc1cc(-c2n[nH]cc2-c2ccnc(N)n2)cnc1N` [Example C-2, 4-[3-(6-amino-5-methoxypyridin-3-yl)-1H-pyrazol-4-yl]pyrimidin-2-amine]: the half-inhibitory concentration (IC50) turned out to be 1310 nM. For `N#CCCNc1nccc(-c2cn(CC(F)F)nc2-c2cnc3c(ccn3CCC#N)c2)n1` [Example D-15] the value was 107 nM; for `CC(C)(CO)n1cc(-c2ccnc(NCCC#N)n2)c(-c2cnc3[nH]cc(Cl)c3c2)n1` [Example E-5, 3-({4-[3-(3-chloro-1H-pyrrolo[2,3-b]pyridin-5-yl)-1-(2-hydroxy-1,1-dimethylethyl)-1H-pyrazol-4-yl]pyrimidin-2-yl}amino)-propanenitrile], 0.836 nM.
